Measurements from paper PMC6571673, “Cytostatic and Cytotoxic Natural Products against Cancer Cell Models” (Molecules, 2019).

What was measured:
[1] = test system: de novo protein synthesis in MDA-MB-231; assay: EZClick in-cell-click de novo protein synthesis assay; type: cell-based, human; details: MDA-MB-231, 2 h exposure time
From the text: Protein synthesis is essential in cell growth, proliferation, signaling, differentiation, and death. […] The assay includes a robust chemical method based on an alkyne containing o-propargyl-puromycin probe, which stops translation by forming covalent conjugates with nascent polypeptide chains. Truncated polypeptides are rapidly turned over by the proteasome and can be detected based on the subsequent click reaction with a fluorescent azide. To test whether these compounds (4–14) induced de novo protein synthesis inhibition, compounds were tested for a 2 h exposure time, under the same conditions as the known protein synthesis inhibitor cycloheximide (CHX) in MDA-MB-231 cell model following an in-cell-click de novo protein synthesis assay.
Biovision’s EZClick™ protein synthesis monitoring assay kit (EZClick™ Global Protein Synthesis Assay Kit, Catalog # K715-100, Milpitas, CA, USA) was used according to manufacturer’s protocol. The assay was conducted in 8-well chambered coverslips (ibidi GmbH µ-slide # 80826, Martinsried, Germany). Cells were plated at 2 × 10^4 per well and incubated at 37 °C for 12 h. Then, the cells were treated with compounds for 1.5 h and processed and stained according to protocol (representative images shown in Figure 4). Protein synthesis activity is shown in red, DNA staining is shown in green. Cycloheximide (CHX) was used as a positive control and DMSO as the negative control. Images shown were taken with a Marianas CSU-X spinning disk confocal imaging system (3i, Denver, CO, USA) configured with a Zeiss Axio Observer microscope (Carl Zeiss Inc., Thornwood, NY, USA) with diode lasers, at 63× magnification and resolution of 512 × 512 pixels (3i). For each field of view, an image stack consisting of 20 optical sections were taken at 63× magnification. The total intensity of red and green staining was quantified for the entire image stack. Six fields of view were analyzed per condition. Images shown represent a single optical section for each field of view. For each stack, the red intensity (protein synthesis) was adjusted to the green intensity (DNA content) in each image. The numbers from six images were used to calculate the average and standard deviation for each condition. Numbers were normalized to the negative control value arbitrarily set to one. The Slide viewer 6 software package was used for rendering and analysis of the images.

SUM149 = assay: Propidium iodide (PI) assay, 48 h; details: SUM149, 48 h, 3 µM
Procedure: The first step was to evaluate if the compounds display cytotoxicity against the adherent cells. Propidium iodide (PI) assay was performed for the drug resistant solid tumor cellular models (triple negative breast cancer models: SUM149 and MDA-MB-231) for 48 h (Figure 5) [30, 31].

With `COC1=C[C@]23CCCN2CCc2cc4c(cc2[C@@H]3[C@@H]1O)OCO4` [Compound 9, cephalotaxine] the “concentration at which de novo protein synthesis is inhibited” value [1] was 10 µM and the “reduction of cell viability” value (SUM149) was 50%.
